Data from patent publication US11046686B2, “Thiadiazole IRAK4 compounds” (Gilead Sciences, Inc., priority 2018, dated 2021).
Where two headings read alike, the source gives them in different places.

Key:
IRAK4 enzyme = IRAK4 enzyme (Homo sapiens (Human), UniProt Q9NWZ3); test: IRAK4 Biochemical Assay (TR-FRET, STK1 KinEASE)
Procedure, shortened: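 IRAK4 (0.75 nM) preincubated 15 min with compound and […] STK1 peptide, then started with 500 μM ATP in HEPES pH 7.0 buffer with MgCl2, DTT, BSA, NP-40; 120 min at room temperature.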

TNFα = test: IRAK4 Monocyte TNFα Cell Based Assay; design: species or system human
Procedure, shortened: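 Human monocytes (5,000/well) pretreated with compound 1 h at 37 °C (0.1% DMSO final), then stimulated with 50 pg/ml LPS for 4 h. Secreted TNFα measured by TR-FRET two-antibody detection after overnight incubation at room temperature; % control relative to unstimulated and LPS-stimulated wells.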

[1] = Homo sapiens, Monocyte, human monocytes, second part of Table 2, compounds 33-343, unit inferred, read-out: EC50 MONO TNF HTRF
[2] = Homo sapiens, Monocyte, read-out: EC50 MONO TNF HTRF
[3] = compounds 1-32, read-out: IC50 HTRF
[4] = Homo sapiens, Monocyte, human monocytes, LPS stimulated, compounds 1-32, read-out: EC50 TNF

Sequence of IRAK4 enzyme (Q9NWZ3 whole entry): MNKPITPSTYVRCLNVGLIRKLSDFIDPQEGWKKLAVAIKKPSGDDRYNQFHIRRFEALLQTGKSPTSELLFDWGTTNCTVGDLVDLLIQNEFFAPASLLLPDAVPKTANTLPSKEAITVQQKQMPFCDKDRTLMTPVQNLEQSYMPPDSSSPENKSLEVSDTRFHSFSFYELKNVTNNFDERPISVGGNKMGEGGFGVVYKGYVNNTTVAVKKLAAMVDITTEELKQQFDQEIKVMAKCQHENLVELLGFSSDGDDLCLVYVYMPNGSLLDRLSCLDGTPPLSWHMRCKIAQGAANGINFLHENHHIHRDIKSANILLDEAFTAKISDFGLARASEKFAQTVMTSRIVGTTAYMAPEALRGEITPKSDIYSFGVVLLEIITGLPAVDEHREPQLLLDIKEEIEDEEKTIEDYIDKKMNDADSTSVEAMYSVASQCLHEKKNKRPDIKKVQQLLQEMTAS

Compound	IC50 (IRAK4 enzyme)	EC50 (TNFα; [1])	also measured
CC1(O)CCN(c2nnc(-c3cnc(-c4ccc5cc(C#N)cnn45)cc3NC3COC3)s2)CC1 [Example 187, 7-(5-(5-(4-hydroxy-4-methylpiperidin-1-yl)-1,3,4-thiadiazol-2-yl)-4-(oxetan-3-ylamino)pyridin-2-yl)pyrrolo[1,2-b]pyridazine-3-carbonitrile]	0.66 nM	10.8 nM	
CC(C)Nc1cc(-c2ccc3cc(C#N)cnn23)ncc1-c1nnc(N2CC3(CNC(=O)C3)C2)s1 [Example 163, 7-(4-(isopropylamino)-5-(5-(7-oxo-2,6-diazaspiro[3.4]octan-2-yl)-1,3,4-thiadiazol-2-yl)pyridin-2-yl)pyrrolo[1,2-b]pyridazine-3-carbonitrile]	0.54 nM	15 nM	
N#Cc1cnn2c(-c3cc(NC4CCOCC4)c(-c4nnc(N5CC6CC(C5)O6)s4)cn3)ccc2c1 [Example 177, 7-(5-(5-(6-oxa-3-azabicyclo[3.1.1]heptan-3-yl)-1,3,4-thiadiazol-2-yl)-4-((tetrahydro-2H-pyran-4-yl)amino)pyridin-2-yl)pyrrolo[1,2-b]pyridazine-3-carbonitrile]	0.41 nM		EC50 (TNFα; [2]): 8.3 nM
CC(=O)N[C@H]1CC[C@H](c2nnc(-c3cnc(-c4ccc5cnc(N[C@@H]6CCCC[C@@H]6N)nn45)cc3NC(C)C)s2)CC1 [Example 50, N-((1r,4r)-4-(5-(6-(2-(((1R,2S)-2-aminocyclohexyl)amino)pyrrolo[2,1-f][1,2,4]triazin-7-yl)-4-(isopropylamino)pyridin-3-yl)-1,3,4-thiadiazol-2-yl)cyclohexyl)acetamide]	0.92 nM	3.6 nM	
CC(C)Nc1cc(-c2ccc3cc(C#N)cnn23)ncc1-c1nnc(-n2cccc2)s1 [Example 28, 7-(5-(5-(1H-pyrrol-1-yl)-1,3,4-thiadiazol-2-yl)-4-(isopropylamino)pyridin-2-yl)pyrrolo[1,2-b]pyridazine-3-carbonitrile]			IC50 (IRAK4 enzyme; [3]): 1.7 nM; EC50 (TNFα; [4]): 6340 nM
CC(=O)N[C@H]1CCN(c2nnc(-c3cnc(-c4ccc5cc(C#N)cnn45)cc3NC(C)C)s2)CC1(F)F [Example 169, (S)-N-(1-(5-(6-(3-cyanopyrrolo[1,2-b]pyridazin-7-yl)-4-(isopropylamino)pyridin-3-yl)-1,3,4-thiadiazol-2-yl)-3,3-difluoropiperidin-4-yl)acetamide]	0.93 nM	220 nM	
CC(=O)NC12CCC(CC1)N(c1nnc(-c3cnc(-c4ccc5cc(C#N)cnn45)cc3NC(C)C)s1)C2 [Example 66, N-(2-(5-(6-(3-cyanopyrrolo[1,2-b]pyridazin-7-yl)-4-(isopropylamino)pyridin-3-yl)-1,3,4-thiadiazol-2-yl)-2-azabicyclo[2.2.2]octan-4-yl)acetamide]	0.42 nM	13.6 nM	
CC(C)Nc1cc(-c2ccc3cc(C#N)cnn23)ncc1-c1nnc(CO)s1 [Example 5, 7-(5-(5-(hydroxymethyl)-1,3,4-thiadiazol-2-yl)-4-(isopropylamino)pyridin-2-yl)pyrrolo[1,2-b]pyridazine-3-carbonitrile]			IC50 (IRAK4 enzyme; [3]): 1 nM; EC50 (TNFα; [4]): 76 nM
CC(=O)N[C@H]1C[C@@H]2C[C@H]1CN2c1nnc(-c2cnc(-c3ccc4cc(C#N)cnn34)cc2NC(C)C)s1 [Example 74, N-((1S,4S,5S)-2-(5-(6-(3-cyanopyrrolo[1,2-b]pyridazin-7-yl)-4-(isopropylamino)pyridin-3-yl)-1,3,4-thiadiazol-2-yl)-2-azabicyclo[2.2.1]heptan-5-yl)acetamide]	0.54 nM	11 nM	
CC(=O)N[C@@H]1C[C@@H]2CC[C@H]1N2c1nnc(-c2cnc(-c3ccc4cc(C#N)cnn34)cc2NC(C)C)s1 [Example 141, N-((1R,2R,4S)-7-(5-(6-(3-cyanopyrrolo[1,2-b]pyridazin-7-yl)-4-(isopropylamino)pyridin-3-yl)-1,3,4-thiadiazol-2-yl)-7-azabicyclo[2.2.1]heptan-2-yl)acetamide]	0.5 nM		EC50 (TNFα; [2]): 18.6 nM
CC1(Nc2cc(-c3ccc4cc(C#N)cnn34)ncc2-c2nnc(N3C[C@H]4CC[C@@H](C3)O4)s2)COC1 [Example 145, 7-(5-(5-((1R,5S)-8-oxa-3-azabicyclo[3.2.1]octan-3-yl)-1,3,4-thiadiazol-2-yl)-4-((3-methyloxetan-3-yl)amino)pyridin-2-yl)pyrrolo[1,2-b]pyridazine-3-carbonitrile]	0.33 nM	5.6 nM	
CC(=O)N[C@H]1CC[C@H](c2nnc(-c3cnc(-c4ccc5cc(C#N)cnn45)cc3NC(C)C)s2)C1 [Compound 247, N-((1S,3S)-3-(5-(6-(3-cyanopyrrolo[1,2-b]pyridazin-7-yl)-4-(isopropylamino)pyridin-3-yl)-1,3,4-thiadiazol-2-yl)cyclopentyl)acetamide]	0.8 nM	25.1 nM	
CC(=O)NC1CCCN(c2nnc(-c3cnc(-c4ccc5cc(C#N)cnn45)cc3NC(C)C)s2)CC1 (stereo not drawn) [Example 298, N-(1-(5-(6-(3-cyanopyrrolo[1,2-b]pyridazin-7-yl)-4-(isopropylamino)pyridin-3-yl)-1,3,4-thiadiazol-2-yl)azepan-4-yl)acetamide]	0.61 nM	36.3 nM	
CC(C)Nc1cc(-c2ccc3cc(C#N)cnn23)ncc1-c1nnc(CCNC(=O)OC(C)(C)C)s1 [Example 1, tert-butyl (2-(5-(6-(3-cyanopyrrolo[1,2-b]pyridazin-7-yl)-4-(isopropylamino)pyridin-3-yl)-1,3,4-thiadiazol-2-yl)ethyl)carbamate]			IC50 (IRAK4 enzyme; [3]): 1.5 nM; EC50 (TNFα; [4]): 309 nM
CNc1cc(-c2ccc3cc(C#N)cnn23)ncc1-c1nnc(N2CC[C@H](NC(C)=O)C(F)(F)C2)s1 [Example 307, (S)-N-(1-(5-(6-(3-cyanopyrrolo[1,2-b]pyridazin-7-yl)-4-(methylamino)pyridin-3-yl)-1,3,4-thiadiazol-2-yl)-3,3-difluoropiperidin-4-yl)acetamide]	0.83 nM	53.7 nM	
CC(C)Nc1cc(-c2ccc3cc(C#N)cnn23)ncc1-c1nnc(N2C3CC2CN(C(=O)C(C)(C)O)C3)s1 [Compound 275, 7-(5-(5-(3-(2-hydroxy-2-methylpropanoyl)-3,6-diazabicyclo[3.1.1]heptan-6-yl)-1,3,4-thiadiazol-2-yl)-4-(isopropylamino)pyridin-2-yl)pyrrolo[1,2-b]pyridazine-3-carbonitrile]	0.78 nM	6.4 nM	
CC(C)Nc1cc(-c2ccc3cc(C#N)cnn23)ncc1-c1nnc(C(=O)NC[C@@H](F)C(C)(C)O)s1 [Example 14, (R)-5-(6-(3-cyanopyrrolo[1,2-b]pyridazin-7-yl)-4-(isopropylamino)pyridin-3-yl)-N-(2-fluoro-3-hydroxy-3-methylbutyl)-1,3,4-thiadiazole-2-carboxamide]			IC50 (IRAK4 enzyme; [3]): < 1 nM; EC50 (TNFα; [4]): 79 nM
CC(C)Nc1cc(-c2ccc3cc(C#N)cnn23)ncc1-c1nnc([C@@H]2C[C@H]2C(C)(C)O)s1 (single isomer, unassigned; isomer 1) [132 Isomer 1]			IC50 (IRAK4 enzyme; second part of Table 2, compounds 33-343, unit inferred, read-out: IC50 IRAK4-HTBS): 1.29 nM; EC50 (TNFα; human monocytes, second part of Table 2, compounds 33-343, unit inferred, read-out: EC50 MONO TNF HTRF): 12.5 nM
CC(=O)NC1CCN(c2nnc(-c3cnc(-c4ccc5cc(C#N)cnn45)cc3NC(C)C)s2)CC1(F)F (stereo not drawn) [Compound 251, N-(1-(5-(6-(3-cyanopyrrolo[1,2-b]pyridazin-7-yl)-4-(isopropylamino)pyridin-3-yl)-1,3,4-thiadiazol-2-yl)-3,3-difluoropiperidin-4-yl)acetamide]	0.48 nM	4.4 nM	
CC(=O)NC1CC2(C1)CN(c1nnc(-c3cnc(-c4ccc5cc(C#N)cnn45)cc3NC(C)C)s1)C2 [Compound 231, N-(2-(5-(6-(3-cyanopyrrolo[1,2-b]pyridazin-7-yl)-4-(isopropylamino)pyridin-3-yl)-1,3,4-thiadiazol-2-yl)-2-azaspiro[3.3]heptan-6-yl)acetamide]	1.17 nM	22.2 nM	
CC(C)Nc1cc(-c2ccc3cc(C#N)cnn23)ncc1-c1nnc(CC(=O)O)s1 [Example 319, 2-(5-(6-(3-cyanopyrrolo[1,2-b]pyridazin-7-yl)-4-(isopropylamino)pyridin-3-yl)-1,3,4-thiadiazol-2-yl)acetic acid]	1.68 nM	126 nM	
CC(C)Nc1cc(-c2ccc3cc(C#N)cnn23)ncc1-c1nnc(C(=O)N2CC[C@H](NC(=O)C3CC3)C2)s1 [Example 46, (S)-N-(1-(5-(6-(3-cyanopyrrolo[1,2-b]pyridazin-7-yl)-4-(isopropylamino)pyridin-3-yl)-1,3,4-thiadiazole-2-carbonyl)pyrrolidin-3-yl)cyclopropanecarboxamide]	0.67 nM	16.7 nM	
CC(=O)N1CCN(c2nnc(-c3cnc(-c4ccc5cc(C#N)cnn45)cc3NC(C)C)s2)C2CC21 (stereo not drawn) [Compound 267, 7-(5-(5-(5-acetyl-2,5-diazabicyclo[4.1.0]heptan-2-yl)-1,3,4-thiadiazol-2-yl)-4-(isopropylamino)pyridin-2-yl)pyrrolo[1,2-b]pyridazine-3-carbonitrile]	0.65 nM	18.9 nM	
CC(C)Nc1cc(-c2ccc3cc(C#N)cnn23)ncc1-c1nnc(C(=O)N2CCC[C@@H]2CO)s1 [Example 214, (R)-7-(5-(5-(2-(hydroxymethyl)pyrrolidine-1-carbonyl)-1,3,4-thiadiazol-2-yl)-4-(isopropylamino)pyridin-2-yl)pyrrolo[1,2-b]pyridazine-3-carbonitrile]	0.46 nM	33.2 nM	
